Where no end group is shown, it is not given here.
Tested on: CD8+ T cells
Assay: In vitro immunogenicity of HLA-A*02 class I peptides: in vitro T-cell priming with aAPCs loaded with peptide/MHC complexes and anti-CD28 antibody, pMHC multimer readout
Assay type: cell-based, human
Conditions: HLA-A*02 peptides; for Donors / Donors (percentage in brackets): healthy donors; for Donors: specific multimer+ CD8+ T-cell line after in vitro stimulation; for Wells: in vitro stimulated wells of healthy donors' CD8+ T cells, specific multimer+ readout

| Substance | Donors | Wells | Donors (percentage in brackets) |
| --- | --- | --- | --- |
| AIIDGVESV (listed as Homo sapiens) [PTP-003] | ++++ (>70% = ++++) | + (<20% = +) |  |
| ALADIAVGV (listed as Homo sapiens) [ADORA3-001] | ++ (20%-49 % = ++) | + (<20% = +) |  |
| ALAFKLDEV (listed as Homo sapiens) [SLC10A4-001] | +++ (50%-70% = +++) | ++ (20%-49 % = ++) |  |
| ALFNKGGSVFL (listed as Homo sapiens) [GPR98-001] | ++ (20%-49 % = ++) | + (<20% = +) |  |
| ALGDIREV (listed as Homo sapiens) [ANKRD40-001] | +++ (50%-70% = +++) | + (<20% = +) |  |
| ALTTLMHQL (listed as Homo sapiens) [PTP-001] | ++ (20%-49 % = ++) | + (<20% = +) |  |
| ALWAWPSEL (listed as Homo sapiens) [BCA-002] | ++++ (>70% = ++++) | ++++ (>70% = ++++) | 100% |
| AMTQLLAGV (listed as Homo sapiens) [TNC-001] | ++ (20%-49 % = ++) | + (<20% = +) |  |
| AVAPGPWKV (listed as Homo sapiens) [MAGI2-001] | ++ (20%-49 % = ++) | + (<20% = +) |  |
| AVVEFLTSV (listed as Homo sapiens) [DROSHA-001] | ++ (20%-49 % = ++) | + (<20% = +) |  |
| EILDYIYEV (listed as Homo sapiens) [ASIC4-001] | ++ (20%-49 % = ++) | + (<20% = +) |  |
| FLDSKFYLL (listed as Homo sapiens) [MAP1B-001] | +++ (50%-70% = +++) | + (<20% = +) |  |
| FLLPDTDGLTAL (listed as Homo sapiens) [PTP-012] | ++ (20%-49 % = ++) | + (<20% = +) |  |
| FLVDGSWSI (listed as Homo sapiens) [COL20-001] | ++ (20%-49 % = ++) | + (<20% = +) |  |
| FLWSDGVPL (listed as Homo sapiens) [BCA-003] | ++ (20%-49 % = ++) | + (<20% = +) |  |
| FLYKVILSL (listed as Homo sapiens) [PTP-002] | +++ (50%-70% = +++) | + (<20% = +) |  |
| FLYNEALYSL (listed as Homo sapiens) [DPP3-001] | +++ (50%-70% = +++) | + (<20% = +) |  |
| GLDPSSGAIHV (listed as Homo sapiens) [PCDHGC5-001] | ++++ (>70% = ++++) | + (<20% = +) | 100% |
| GLLDQIQAL (listed as Homo sapiens) [NLGN4X-002] | ++ (20%-49 % = ++) | + (<20% = +) |  |
| GLMEKIKEL (listed as Homo sapiens) [CPT1C-001] | ++ (20%-49 % = ++) | + (<20% = +) |  |
| GLPSGAPPGV (listed as Homo sapiens) [MTSS1L-001] | ++++ (>70% = ++++) | +++ (50%-70% = +++) | 100% |
| GLSEFTEYL (listed as Homo sapiens) [MAP1B-002] | ++ (20%-49 % = ++) | + (<20% = +) |  |
| GLWHHQTEV (listed as Homo sapiens) [NRC AM-001] | ++++ (>70% = ++++) | + (<20% = +) | 100% |

| Substance | Donors | Wells | Donors (percentage in brackets) |
| --- | --- | --- | --- |
| GMMTAILGV (listed as Homo sapiens) [SLC35E1-002] | ++ (20%-49 % = ++) | + (<20% = +) |  |
| GVLENIFGV (listed as Homo sapiens) [PCNXL3-001] | ++ (20%-49 % = ++) | + (<20% = +) |  |
| ILFEINPKL (listed as Homo sapiens) [ABCA13-001] | ++ (20%-49 % = ++) | + (<20% = +) |  |
| ILFPDIIARA (listed as Homo sapiens) [MAGEF1-001] | ++++ (>70% = ++++) | ++ (20%-49 % = ++) |  |
| ILIDWLVQV (listed as Homo sapiens) [CCNB1-002] | +++ (50%-70% = +++) | + (<20% = +) |  |
| KIQEILTQV (listed as Homo sapiens) [IGF2BP3-001] | +++ (50%-70% = +++) | + (<20% = +) |  |
| KLADQYPHL (listed as Homo sapiens) [SOX-001] | ++++ (>70% = ++++) | + (<20% = +) |  |
| KLCEGFNEV (listed as Homo sapiens) [CHCHD2-005] | +++ (50%-70% = +++) | + (<20% = +) |  |
| KLFDSDPITVTV (listed as Homo sapiens) [CLU-001] | ++ (20%-49 % = ++) | + (<20% = +) |  |
| KLGDFGLATVV (listed as Homo sapiens) [DCA-001] | ++ (20%-49 % = ++) | + (<20% = +) |  |
| KLTDIQIEL (listed as Homo sapiens) [JAK-001] | ++ (20%-49 % = ++) | + (<20% = +) |  |
| KLVEFDFLGA (listed as Homo sapiens) [TACC3-001] | ++ (20%-49 % = ++) | + (<20% = +) |  |
| KVFAGIPTV (listed as Homo sapiens) [PTP-005] | ++++ (>70% = ++++) | ++ (20%-49 % = ++) |  |
| KVFDEVIEV (listed as Homo sapiens) [GYG2-001] | ++ (20%-49 % = ++) | + (<20% = +) |  |
| LLLGSPAAA (listed as Homo sapiens) [SEZ6L-001] | ++++ (>70% = ++++) | + (<20% = +) |  |
| LLQDRLVSV (listed as Homo sapiens) [PLEKHA4-001] | +++ (50%-70% = +++) | + (<20% = +) |  |
| LLWGNAIFL (listed as Homo sapiens) [KIF1A-001] | +++ (50%-70% = +++) | ++ (20%-49 % = ++) |  |
| LLYDAVHIV (listed as Homo sapiens) [GRIK3-001] | ++++ (>70% = ++++) | + (<20% = +) |  |
| LLYTGDLEAL (listed as Homo sapiens) [NPAS3-001] | ++ (20%-49 % = ++) | + (<20% = +) |  |
| LTAPPEALLMV (listed as Homo sapiens) [NOC4-001] | +++ (50%-70% = +++) | + (<20% = +) |  |
| LTFGDVVAV (listed as Homo sapiens) [FABP7-001] | ++++ (>70% = ++++) | + (<20% = +) |  |
| MIWEHNVEV [PTP-013] | ++++ (>70% = ++++) | + (<20% = +) |  |
| MLFGHPLLVSV (listed as Homo sapiens) [USP11-001] | ++++ (>70% = ++++) | ++ (20%-49 % = ++) |  |

| Substance | Donors | Wells | Donors (percentage in brackets) |
| --- | --- | --- | --- |
| NILEQIVSV (listed as Homo sapiens) [GRI-001] | ++ (20%-49 % = ++) | + (<20% = +) |  |
| NLDTLMTYV (listed as Homo sapiens) [NLGN4X-001] | ++++ (>70% = ++++) | ++ (20%-49 % = ++) | 100% |
| NLLAEIHGV (listed as Homo sapiens) [DPYSL4-001] | ++ (20%-49 % = ++) | + (<20% = +) |  |
| RLGIKPESV (listed as Homo sapiens) [CSRP2-001] | ++++ (>70% = ++++) | ++ (20%-49 % = ++) | 100% |
| RLISKFDTV (listed as Homo sapiens) [EIF4E-001] | +++ (50%-70% = +++) | + (<20% = +) |  |
| RVADYIVKV [SLC10A4-002] | +++ (50%-70% = +++) | + (<20% = +) |  |
| RVAS*PTSGV (RVASPTSGV; not fully specified (residue 4); printed as RVAS*PTSGV; listed as Homo sapiens) [IRS-001] | +++ (50%-70% = +++) | + (<20% = +) |  |
| SLADFMQEV (listed as Homo sapiens) [CNOT1-002] | ++ (20%-49 % = ++) | + (<20% = +) |  |
| SLAERLFFQV (listed as Homo sapiens) [NAT8L-001] | ++++ (>70% = ++++) | + (<20% = +) |  |
| SLDTLMTYV (listed as Homo sapiens) [NLGN4Y-001] | ++++ (>70% = ++++) | + (<20% = +) |  |
| SLGLFLAQV (listed as Homo sapiens) [SCARA3-001] | ++ (20%-49 % = ++) | + (<20% = +) |  |
| SLWGGDVVL (listed as Homo sapiens) [VPS13B-001] | ++++ (>70% = ++++) | ++ (20%-49 % = ++) | 100% |
| SLYKGLLSV (listed as Homo sapiens) [RAD54B-001] | ++++ (>70% = ++++) | ++ (20%-49 % = ++) | 100% |
| TLLAAEFLKQV (listed as Homo sapiens) [CCT-001] | +++ (50%-70% = +++) | + (<20% = +) |  |
| TLTNIIHNL (listed as Homo sapiens) [ORMDL1-002] | +++ (50%-70% = +++) | + (<20% = +) |  |
| TLWYRAPEV (listed as Homo sapiens) [CDK4-001] | ++++ (>70% = ++++) | ++ (20%-49 % = ++) |  |
| TMLARLASA (listed as Homo sapiens) [CSP-001] | +++ (50%-70% = +++) | + (<20% = +) |  |
| TMMSRPPVL (listed as Homo sapiens) [WLS-002] | +++ (50%-70% = +++) | + (<20% = +) |  |
| VLCGPPPAV (listed as Homo sapiens) [NC AN-001] | ++++ (>70% = ++++) | + (<20% = +) | 100% |
| VLIQDVPTL (listed as Homo sapiens) [GRI-002] | ++ (20%-49 % = ++) | + (<20% = +) |  |
| YLPTFFLTV (listed as Homo sapiens) [ELOVL2-001] | ++++ (>70% = ++++) | + (<20% = +) |  |

— patent publication US11607446B2, “Personalized immunotherapy against several neuronal and brain tumors” (Immatics Biotechnologies GmbH, priority 2013, dated 2023)
